In patent publication US20020019378A1, “COMPOUNDS” (priority 1997, published 2002):
Like-named read-outs stand apart in the source and are kept apart here. Blank lines part the entries; values can stand above or below the compound they belong to.

What was measured:
[1] = biological target: T1, Human Glucocorticoid Receptor (Homo sapiens, UniProt P04150); assay: Functional in vitro glucocorticoid activity assay: Hela cells stably transfected with sPAP reporter gene under MMTV LTR promoter; format: cell-based; details: 72 hours incubation, values given as 'less than (about)', read-out: EC50 (sPAP transcription, glucocorticoid activity)
T1 construct: endogenous in cells; host or cells: HeLa cells stably transfected with an MMTV-LTR sPAP reporter
T1 sequence (P04150 1-777): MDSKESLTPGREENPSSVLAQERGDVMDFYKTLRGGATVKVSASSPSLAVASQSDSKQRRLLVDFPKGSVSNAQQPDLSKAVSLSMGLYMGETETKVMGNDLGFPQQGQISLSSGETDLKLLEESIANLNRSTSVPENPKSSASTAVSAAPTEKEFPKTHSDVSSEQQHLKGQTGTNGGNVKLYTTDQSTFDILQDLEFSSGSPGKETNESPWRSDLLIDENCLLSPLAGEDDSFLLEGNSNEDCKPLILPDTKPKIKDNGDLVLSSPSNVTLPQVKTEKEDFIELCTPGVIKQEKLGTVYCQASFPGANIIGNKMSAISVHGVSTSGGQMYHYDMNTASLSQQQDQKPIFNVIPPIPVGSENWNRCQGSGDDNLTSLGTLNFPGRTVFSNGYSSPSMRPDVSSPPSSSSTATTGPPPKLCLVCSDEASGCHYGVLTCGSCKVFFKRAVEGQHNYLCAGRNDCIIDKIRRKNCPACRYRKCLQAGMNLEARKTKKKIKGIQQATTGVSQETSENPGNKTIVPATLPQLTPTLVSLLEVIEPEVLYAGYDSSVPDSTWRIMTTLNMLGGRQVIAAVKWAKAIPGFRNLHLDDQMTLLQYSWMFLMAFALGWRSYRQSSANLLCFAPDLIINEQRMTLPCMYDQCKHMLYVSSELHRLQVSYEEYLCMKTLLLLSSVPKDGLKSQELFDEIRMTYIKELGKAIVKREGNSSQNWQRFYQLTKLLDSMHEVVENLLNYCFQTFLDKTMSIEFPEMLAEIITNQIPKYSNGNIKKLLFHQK
Text: The functional assay used was a modification of the method described by T. S Berger et al, of J. of Steroid Biochem. Molec. Biol. 1992, 41 (3-8), 733-738, “Interaction of Glucocorticoid analogues with the Human Glucocorticoid Receptor”. Thus, Hela cells were stably transfected with a detectable reporter gene (secreted placental alkaline phosphatase, sPAP) under the control of a glucocorticoid response promoter (the LTR of the mouse mammary tumour virus, MMTV). Various concentrations of standard (dexamethasone) or compounds of the invention were incubated with transfected Hela cells for 72 hours. At the end of the incubation, substrate ([…]) for sPAP was added and the product measured by a spectrophotometric method. Increased absorbance reflected increased sPAP transcription and concentration-response lines were constructed such that EC50-values could be estimated.

[2] = biological target: human serum paraoxonase (Homo sapiens, UniProt P27169); assay: Hydrolysis by human serum paraoxonase (enzymatic hydrolysis test method); format: in vitro ADME; details: 5% bovine serum albumin, 20 mM CaCl2, 37° C.
Sequence of human serum paraoxonase (P27169 whole entry): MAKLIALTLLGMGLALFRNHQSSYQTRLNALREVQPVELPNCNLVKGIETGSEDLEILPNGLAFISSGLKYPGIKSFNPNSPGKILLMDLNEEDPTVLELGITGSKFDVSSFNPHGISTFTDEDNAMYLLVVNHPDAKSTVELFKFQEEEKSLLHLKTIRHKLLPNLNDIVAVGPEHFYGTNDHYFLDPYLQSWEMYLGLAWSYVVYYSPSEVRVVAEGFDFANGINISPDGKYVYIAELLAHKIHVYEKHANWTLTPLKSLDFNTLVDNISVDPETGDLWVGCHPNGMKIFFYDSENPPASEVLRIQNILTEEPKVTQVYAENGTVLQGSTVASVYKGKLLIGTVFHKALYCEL
Protocol: The compounds herein have relatively short half-lives in blood in vitro. A test method for determining the half-life of the compounds under defined enzymatic hydrolysis conditions in vitro is now described. The test method is believed to provide a suitable indicator as to effects in vivo. In the test method, the hydrolysis of test compounds by a lactonase enzyme is monitored using RP HPLC with UV detection.
The ‘enzymatic hydrolysis test method’ is as follows: Incubations are carried out in 1 ml volumes in an aqueous medium containing 5% bovine serum albumin in the presence of 20 mM CaCl2. The solutions are preincubated at 37° C. for 5 minutes before the addition of the test compound (5 μl of a 5 mg/ml solution in DMSO) and then lactonase enzyme (10 μl to the 1 ml incubations). Control incubations containing no enzyme are also included. The enzymatic hydrolysis is monitored by removal of aliquots and quenching the reaction by the addition of an equal volume of acetonitrile. The samples are vortex mixed, then centrifuged and the supernatants are transferred to autosampler vials for HPLC analysis.
In a suitable HPLC procedure, aliquots (20 μl) of the supernatants are injected onto a Zorbax Rx C8 column (250×4.6mm; Hichrom). The column is maintained at 40° C. and eluted at a flow rate of 1.0 mL/min with a mobile phase of acetonitrile: 50 mM ammonium formate (65:35) adjusted to pH 4.2 with formic acid. Detection is by UV absorbance at 240 nm, and chromatographic peak areas for both parent and metabolite are measured.
In a preferred aspect, the half-life of each compound may be determined by a method in which peak areas are plotted against time on a log-linear scale, and the half lives determined by extrapolation or interpolation of a straight line joining two points.
The above described ‘enzymatic hydrolysis test method’ employs lactonase enzyme. Suitable forms of lactonase enzyme include human serum paraoxonase or a recombinant form thereof, or purified lactonase, obtained from human plasma as described hereinafter. Purification of human serum paraoxonase is described by C E Furlong et al, Chem.Biol.Interactions, Vol 87, p35-48, (1993) and recombinant human serum paraoxonase is described in International Patent application No. WO 96/01322
The susceptibility to hydrolysis by human serum paraoxonase of certain of the compounds of the Examples was assessed using the test protocol of the ‘enzymatic hydrolysis test method’ described herein.

[3] = tested on: lactonase enzyme purified from human plasma; format: biochemical; details: for Restoration of lactonase activity in the presence of EDTA and EGTA: salt added at 100 mM
Protocol: The enzyme activity purified according to A. above was tested with classical inhibitors in order to establish to which enzyme family it belongs. Also, it was investigated whether a divalent cation was required as a co-factor, as disclosed in W. N. Fishbein et al, Journal of Biological Chemistry 1966, 241(21), 4835-4841.

[4] = Stability in human plasma test method; format: in vitro ADME; details: 37° C.
Protocol: The stability of various of the compounds of the Examples in human plasma was tested using the following ‘stability in human plasma’ test method: 500 μl aliquots of human plasma in screw capped polypropylene tubes were preincubated at 37° C. in a waterbath for 5 minutes. The plasma samples were then spiked with 5 μl of test compound (nominally 5 mg/ml in DMSO). Aliquots (100 μl ) were removed immediately and after 5 minutes and mixed with an equal volume of acetonitrile. The samples were centrifuged and the supernatants were transferred to autosampler vials for HPLC and half-life analysis.
In the HPLC procedure, aliquots (20 μl) of all the supernatants were injected onto a Zorbax Rx C8 column (250×4.6mm; Hichrom). The column was maintained at 40° C. and eluted at a flow rate of 1.0 mL/min with a mobile phase of acetonitrile: 50 mM ammonium formate (65:35) adjusted to pH 4.2 with formic acid. Detection was by UV absorbance at 240 nm, and chromatographic peak areas for both parent and metabolite were measured
To determine the half-life, for each compound peak areas were plotted against time on a log-linear scale, and the half lives determined by extrapolation or interpolation of a straight line joining two points.

[5] = Stability in human lung S9; format: in vitro ADME; details: human lung S9 diluted 1:1 with phosphate buffer pH 7.4, NADPH, 37° C.
Protocol: The stability of the compound of Examples 4 and 6 in a model human lung environment was assessed using the following test protocol: Incubations were carried out, at 37° C., in 500 μL volumes of human lung S9 diluted 1:1 with 10 mM phosphate buffer pH 7.4 to which was added 50 μl of 30 mg/ml (Aq) NADPH. The reactions were started by the addition of 5 μl of test compound (nominally 5 mg/ml solution in DMSO). Aliquots (100 μl) were removed immediately and after 1 hour and mixed with an equal volume of acetonitrile to stop the reaction. Samples were centrifuged and the supernatants were transferred to autosampler vials for HPLC analysis and half-life analysis using methods identical to those described in the ‘stability in human plasma’ test protocol described above. Control incubations containing no lung S9 were also included.

EC50 [1]: < 250 nM
SMILES: CCC(=O)O[C@]1(C(=O)SCC2CCOC2=O)[C@H](C)C[C@H]2[C@@H]3C[C@H](F)C4=CC(=O)C=C[C@]4(C)[C@@]3(F)[C@@H](O)C[C@@]21C (single isomer, unassigned) [Example 2, 6α,9α-Difluoro-11β-hydroxy-16α-methyl-3-oxo-17α-propionyloxy-androsta-1,4-diene-17β-carbothioic acid S-(2-oxo-tetrahydro-furan-3-ylmethyl) ester]

SMILES: CCC(=O)OC1(C(=O)SC2COC(=O)O2)C(C)CC2C3CC(F)C4=CC(=O)C=CC4(C)C3(F)C(O)CC21C (single isomer, unassigned) [Example 7 isomer A, 6α,9α-Difluoro-11β-hydroxy-16α-methyl-3-oxo-17α-propionyloxy-androsta-1,4-diene-17β-carbothioic acid S-(2-oxo-1,3-dioxolan-4-yl) ester]
EC50 [1]: < 500 nM
Hydrolysis by human serum paraoxonase [2]: hydrolysed

SMILES: CCC(=O)OC1(C(=O)OC2COC(=O)O2)C(C)CC2C3CC(F)C4=CC(=O)C=CC4(C)C3(F)C(O)CC21C (single isomer, unassigned; isomer a) [Example 9 isomer A, 6α,9α-Difluoro-11β-hydroxy-16α-methyl-3-oxo-17α-propionyloxy-androsta-1,4-diene-17β-carboxylic acid O-(2-oxo-1,3-dioxolan-4-yl) ester]
Hydrolysis by human serum paraoxonase [2]: hydrolysed

SMILES: [Ca+2].[Cl-].[Cl-] [CaCl2]
Restoration of lactonase activity in the presence of EDTA and EGTA [3]: fully restored

SMILES: O=C(O)CN(CCN(CC(=O)O)CC(=O)O)CC(=O)O [EDTA]
Inhibition of lactonase activity [3]: totally inhibited

SMILES: O=C(O)CN(CCOCCOCCN(CC(=O)O)CC(=O)O)CC(=O)O [EGTA]
Inhibition of lactonase activity ([3]; inhibitor at 1 mM): totally inhibited

EC50 [1]: < 250 nM
SMILES: C[C@@H]1C[C@H]2[C@@H]3C[C@H](F)C4=CC(=O)C=C[C@]4(C)[C@@]3(F)[C@@H](O)C[C@]2(C)[C@]12OC(=O)SC2=O [Example 1, 6α,9α-Difluoro-11β-hydroxy-16α-methyl-17-spiro[androsta-1,4-diene-17,5′-[1,3]oxathiolane]-2′,3,4′-trione]

SMILES: CSC(=O)[C@@]1(OC(=O)CSC2COC(=O)C2)[C@H](C)C[C@H]2[C@@H]3C[C@H](F)C4=CC(=O)C=C[C@]4(C)[C@@]3(F)[C@@H](O)C[C@@]21C (stereo partly drawn) [Example 3, 6α,9α-Difluoro-11β-hydroxy-16α-methyl-3-oxo-17α-(2-oxo-tetrahydro-furan-4-ylsulfanyl-acetoxy)-androsta-1,4-diene-17β-carbothioic acid methyl ester]
EC50 [1]: < 250 nM
half-life at 49.5 µg/mL [4]: < 10 min
Hydrolysis by human serum paraoxonase [2]: hydrolysed

EC50 [1]: < 250 nM
SMILES: C[C@]12C=CC(=O)C=C1CC[C@H]1[C@@H]3C[C@H]4CC(=O)O[C@@]4(C(=O)CO)[C@@]3(C)C[C@H](O)[C@@]12F [Example 5, 9α-Fluoro-11β,17α,21-trihydroxy-3,20-dioxo-pregna-1,4-diene-16α-acetic acid γ-lactone]

half-life at 49.5 µg/mL [4]: < 10 min
half-life at 45 µg/mL [5]: > 60 min
SMILES: Nc1c(Cl)cc(C(O)CNCCCSC2CCOC2=O)cc1Cl.O=C(O)C(F)(F)F (stereo not shown) [Example 6, 3-[3-[2-(4-Amino-3,5-dichlorophenyl)-2-hydroxyethylamino]propylsulfanyl]-dihydro-furan-2-one trifluoroacetate]

SMILES: CCC(=O)O[C@]1(C(=O)SCc2oc(=O)oc2C)[C@H](C)C[C@H]2[C@@H]3C[C@H](F)C4=CC(=O)C=C[C@]4(C)[C@@]3(F)[C@@H](O)C[C@@]21C [Example 10, 6α,9α-Difluoro-11β-hydroxy-16α-methyl-3-oxo-17α-propionyloxy-androsta-1,4-diene-17β-carbothioic acid S-(5-methyl-2-oxo-1,3-dioxol-4-ylmethyl) ester]
EC50 [1]: < 500 nM
half-life at 49.5 µg/mL [4]: < 10 min

SMILES: CCC(=O)OC1(C(=O)OCc2oc(=O)oc2C)C(C)CC2C3CC(F)C4=CC(=O)C=CC4(C)C3(F)C(O)CC21C (stereo not drawn) [Example 12, 6α,9α-Difluoro-11β-hydroxy-16α-methyl-3-oxo-17α-propionyloxy-androsta-1,4-diene-17β-carboxylic acid O-(5-methyl-2-oxo-1,3-dioxol-4-ylmethyl) ester]
Hydrolysis by human serum paraoxonase [2]: hydrolysed

SMILES: [Cl-].[Cl-].[Mg+2] [MgCl2]
Restoration of lactonase activity in the presence of EDTA and EGTA [3]: not restored

SMILES: CNC(=O)Oc1ccc2c(c1)[C@]1(C)CCN(C)[C@@H]1N2C [eserine]
Inhibition of lactonase activity ([3]; inhibitor at 50 mM): not inhibited

SMILES: O=C(O)c1cc[c]([Hg][Cl])cc1 [p-chloromercuribenzoate (PCMB), p-chloromercuribenzoate]
Inhibition of lactonase activity ([3]; inhibitor at 1 mM): slightly inhibited

SMILES: O=S(=O)(F)Cc1ccccc1 [phenylmethylsulphonyl fluoride (PMSF), phenylmethylsulphonyl fluoride]
Inhibition of lactonase activity ([3]; inhibitor at 10 mM): not inhibited

SMILES: O=S(=O)([O-])[O-].[Zn+2] [zinc sulphate]
Inhibition of lactonase activity ([3]; inhibitor at 1 mM): totally inhibited
